# US20230382925A1, “MODULATORS OF CYSTIC FIBROSIS TRANSMEMBRANE CONDUCTANCE REGULATOR” (VERTEX PHARMACEUTICALS INCORPORATED, priority 2020, published 2023)
# Read-outs that look alike come from different tables or passages of the source.
# Target: CFTR (Homo sapiens, UniProt P13569)
# Test: Membrane Potential Dye, Enteroid Assay B
# Format: cell-based
# Summary of the method: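 Activity given as % of a triple-combination reference (1 μM and 3 μM correctors, 300 nM acute potentiator). Enteroids were preincubated 18-24 h with compound; chloride efflux then measured 15 min by methyl oxonol fluorescence after forskolin/IBMX/Compound III stimulation in chloride-free buffer containing CaCCinh-A01 and Chicago Sky Blue.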
# [1] = Table 10, read-out: Ent. B EC50
# Chain of CFTR (P13569 with tags, fused parts or gaps DEL508-508): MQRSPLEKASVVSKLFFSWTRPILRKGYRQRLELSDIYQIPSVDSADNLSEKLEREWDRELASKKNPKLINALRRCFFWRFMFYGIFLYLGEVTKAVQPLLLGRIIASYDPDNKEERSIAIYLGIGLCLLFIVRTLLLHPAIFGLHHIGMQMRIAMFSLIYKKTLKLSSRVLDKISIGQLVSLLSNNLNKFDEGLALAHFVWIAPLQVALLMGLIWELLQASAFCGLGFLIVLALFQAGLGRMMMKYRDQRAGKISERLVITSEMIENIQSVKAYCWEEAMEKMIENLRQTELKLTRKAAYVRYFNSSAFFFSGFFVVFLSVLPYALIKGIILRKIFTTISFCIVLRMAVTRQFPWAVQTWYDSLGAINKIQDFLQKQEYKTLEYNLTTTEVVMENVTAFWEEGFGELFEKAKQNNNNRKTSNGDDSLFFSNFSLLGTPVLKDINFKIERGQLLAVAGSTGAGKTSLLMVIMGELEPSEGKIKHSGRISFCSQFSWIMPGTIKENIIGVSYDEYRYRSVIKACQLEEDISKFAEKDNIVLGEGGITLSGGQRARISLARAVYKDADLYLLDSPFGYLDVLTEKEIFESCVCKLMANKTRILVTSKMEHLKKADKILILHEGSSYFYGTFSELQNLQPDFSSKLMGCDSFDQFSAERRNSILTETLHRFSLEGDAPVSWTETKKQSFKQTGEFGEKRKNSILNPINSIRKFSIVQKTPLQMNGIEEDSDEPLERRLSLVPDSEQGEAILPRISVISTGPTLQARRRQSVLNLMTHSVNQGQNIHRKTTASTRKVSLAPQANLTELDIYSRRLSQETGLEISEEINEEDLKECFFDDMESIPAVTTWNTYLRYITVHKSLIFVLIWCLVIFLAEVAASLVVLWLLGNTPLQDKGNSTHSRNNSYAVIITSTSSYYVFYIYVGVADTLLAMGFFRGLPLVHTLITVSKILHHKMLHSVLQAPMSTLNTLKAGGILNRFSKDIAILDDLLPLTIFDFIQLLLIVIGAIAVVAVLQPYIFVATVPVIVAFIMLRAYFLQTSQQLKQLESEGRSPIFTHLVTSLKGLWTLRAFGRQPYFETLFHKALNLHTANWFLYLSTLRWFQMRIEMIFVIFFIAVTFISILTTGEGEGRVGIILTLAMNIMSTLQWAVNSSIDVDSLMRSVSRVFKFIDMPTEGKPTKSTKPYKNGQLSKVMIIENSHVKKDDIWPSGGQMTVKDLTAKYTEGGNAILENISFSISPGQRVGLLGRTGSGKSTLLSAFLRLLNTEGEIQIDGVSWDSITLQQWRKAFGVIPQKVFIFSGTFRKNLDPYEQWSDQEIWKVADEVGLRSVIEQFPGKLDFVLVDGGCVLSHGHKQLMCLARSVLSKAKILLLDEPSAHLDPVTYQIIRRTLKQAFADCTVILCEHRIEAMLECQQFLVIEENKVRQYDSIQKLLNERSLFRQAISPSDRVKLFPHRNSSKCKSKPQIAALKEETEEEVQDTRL
Ent. B Max Activity (%) (Table 9),"EC50 (Table 9, read-out: Ent. B EC50) [µM]",Ent. B Max Activity (%) (Table 10),EC50 [1] [µM],Compound,also measured
+++ (+++ is >60%),< 1,–,–,COC(=O)NC1CC(N2C(=O)c3cccc(c3)S(=O)(=O)Nc3nc(cc(-c4c(C)cccc4C)n3)OC[C@H]2CC(C)(C)C(F)(F)F)C1 (some centres unmarked) [Compound 418],–
–,–,+++ (+++ is >60%),< 1,Cc1cccc(C)c1-c1cc2nc(n1)NS(=O)(=O)c1cccc(n1)C(=O)N(C1CC3(CC(C(=O)N(C)C)C3)C1)[C@H](CC(C)(C)C)CO2 (some centres unmarked) [Compound 415],–
+++ (+++ is >60%),< 1,–,–,COC(=O)N[C@H]1C[C@@]2(C1)C[C@H](N1C(=O)c3cccc(c3)S(=O)(=O)Nc3nc(cc(-c4c(C)cccc4C)n3)OC[C@H]1CC1(C(F)(F)F)CC1)C2 (some centres unmarked) [Compound 273],–
–,–,+++ (+++ is >60%),< 1,"Cc1cccc(C)c1-c1cc2nc(n1)NS(=O)(=O)c1cccc(c1)C(=O)N(C1CC3(C1)CC(C(C)(C)O)C3)[C@H](CCC(C)(C)C)CO2 (single isomer, unassigned) [Compound 9]",–
–,–,++ (++ is 30-60%),< 1,"CCN(C(=O)OC)C1CC(N2C(=O)c3cccc(c3)S(=O)(=O)Nc3nc(cc(-c4c(C)cccc4C)n3)OC[C@H]2CC(C)(C)C)C1 (single isomer, unassigned) [Compound 238]",–
+++ (+++ is >60%),< 1,–,–,Cc1ccc(F)c(C)c1-c1cc2nc(n1)NS(=O)(=O)c1cccc(c1)C(=O)N(C1CC3(CC3)C1)[C@H](CC(C)C)CO2 [Compound 424],–
+++ (+++ is >60%),< 1,–,–,"Cc1cccc(C)c1-c1cc2nc(n1)NS(=O)(=O)c1cccc(c1)C(=O)N([C@H]1C[C@@H](OC(C)C)C1)[C@H](CC(C)C)CO2 (single isomer, unassigned) [Compound 45]",–
+++ (+++ is >60%),< 1,–,–,Cc1cccc(C)c1-c1cc2nc(n1)NS(=O)(=O)c1cccc(c1)C(=O)N(C1CC3(CCN(CCOCc4ccccc4)CC3)C1)[C@H](CC(C)C)CO2 [Compound 290],–
++ (++ is 30-60%),< 1,–,–,[H][C@]1(N2C(=O)c3cccc(c3)S(=O)(=O)Nc3nc(cc(-c4c(C)cccc4C)n3)OC[C@H]2CC(C)C)C[C@@]2(C[C@H](N(C)C(=O)OC(C)C)C2)C1 (some centres unmarked) [Compound 284],–
–,–,+++ (+++ is >60%),< 1,"COC(=O)N(C)C1CC(N2C(=O)c3cccc(c3)S(=O)(=O)Nc3nc(cc(-c4c(C)cccc4C)n3)OC[C@H]2CC(C)(C)C)C1 (single isomer, unassigned) [Compound 169]",–
+++ (+++ is >60%),< 1,–,–,Cc1cccc(C)c1-c1cc2nc(n1)NS(=O)(=O)c1cccc(c1)C(=O)N(C1CC(NC(=O)OC(C)C)C1)[C@H](CC(C)(C)C)CO2 (stereo in doubt) [Compound 450],–
–,–,++ (++ is 30-60%),< 1,"Cc1cccc(C)c1-c1cc2nc(n1)NS(=O)(=O)c1cccc(c1)C(=O)N(C1CC3(COC(=O)N3)C1)[C@H](CC(C)(C)C)CO2 (single isomer, unassigned) [Compound 175]",–
+++ (+++ is >60%),< 1,–,–,COC(=O)N1CC2(CC(N3C(=O)c4cccc(c4)S(=O)(=O)Nc4nc(cc(-c5c(C)cccc5C)n4)OC[C@H]3CC3(C(F)(F)F)CC3)C2)C1 [Compound 453],–
–,–,+++ (+++ is >60%),< 1,"Cc1cccc(C)c1-c1cc2nc(n1)NS(=O)(=O)c1cccc(c1)C(=O)N(C1CC3(CC(O)C3)C1)[C@H](CC(C)(C)C)CO2 (single isomer, unassigned) [Compound 121]",–
–,–,++ (++ is 30-60%),< 1,"Cc1cccc(C)c1-c1cc2nc(n1)NS(=O)(=O)c1cccc(c1)C(=O)N(C1CC3(COC(=O)N3C)C1)[C@H](CC(C)(C)C)CO2 (single isomer, unassigned) [Compound 177]",–
–,–,–,–,"Cc1cccc(C)c1-c1cc2nc(n1)NS(=O)(=O)c1cccc(c1)C(=O)N([C@H]1C[C@@H](NC(=O)OC(C)C)C1)[C@H](CC(C)C)CO2 (single isomer, unassigned) [Compound 63]",Ent. B Max Activity (%): +++ (+++ is >60%); EC50 (read-out: Ent. B EC50): < 1 µM
–,–,++ (++ is 30-60%),< 1,Cc1cccc(C)c1-c1cc2nc(n1)NS(=O)(=O)c1cccc(c1)C(=O)N(C1CC3(CCNC(=O)C3)C1)[C@H](CC(C)C)CO2 (some centres unmarked) [Compound 201],–

Ent. B Max Activity (%) (Table 9),"EC50 (Table 9, read-out: Ent. B EC50) [µM]",Ent. B Max Activity (%) (Table 10),EC50 [1] [µM],Compound,also measured
+++ (+++ is >60%),< 1,–,–,"Cc1cccc(C)c1-c1cc2nc(n1)NS(=O)(=O)c1cccc(c1)C(=O)N(C1CC(N3CCS(=O)(=O)CC3)C1)[C@H](CC(C)C)CO2 (stereo partly drawn) [Compound 72, (11R)-6-(2,6-dimethylphenyl)-12-[3-(1,1-dioxo-1,4-thiazinan-4-yl)cyclobutyl]-11-isobutyl-2,2-dioxo-9-oxa-2λ^6-thia-3,5,12,19-tetrazatricyclo[12.3.1.14,8]nonadeca-1(18),4(19),5,7,14,16-hexaen-13-one]",–
–,–,+++ (+++ is >60%),< 1,"CC(=O)NCC[C@H]1C[C@@H](N2C(=O)c3cccc(c3)S(=O)(=O)Nc3nc(cc(-c4c(C)cccc4C)n3)OC[C@H]2CC(C)(C)C)C1 (single isomer, unassigned) [Compound 154]",–
–,–,++ (++ is 30-60%),< 1,Cc1cccc(C)c1-c1cc2nc(n1)NS(=O)(=O)c1cccc(c1)C(=O)N(C1CC(N3CCCC3=O)C1)[C@H](CC(C)C)CO2 (some centres unmarked) [Compound 369],–
–,–,–,–,"CO[C@H]1C[C@@H](N2C(=O)c3cccc(c3)S(=O)(=O)Nc3nc(cc(-c4c(C)cccc4C)n3)OC[C@H]2CC(C)(C)C)C1 (single isomer, unassigned) [Compound 150]",Ent. B Max Activity (%): +++ (+++ is >60%); EC50 (read-out: Ent. B EC50): < 1 µM
+++ (+++ is >60%),< 1,–,–,COC(=O)N(C)[C@H]1C[C@@]2(C1)C[C@H](N1C(=O)c3cccc(c3)S(=O)(=O)Nc3nc(cc(-c4c(C)cccc4C)n3)OC[C@H]1CC1(C(F)(F)F)CC1)C2 (stereo in doubt) [Compound 259],–
+++ (+++ is >60%),< 1,–,–,"Cc1cccc(C)c1-c1cc2nc(n1)NS(=O)(=O)c1cccc(c1)C(=O)N(C1CC(NC(=O)OC(C)(C)C)C1)[C@H](CC(C)(C)C(F)(F)F)CO2 (single isomer, unassigned) [Compound 194]",–
–,–,++ (++ is 30-60%),< 1,"COC(=O)NC1(C)CC2(CC(N3C(=O)c4cccc(c4)S(=O)(=O)Nc4nc(cc(-c5c(C)cccc5C)n4)OC[C@H]3CC(C)(C)C)C2)C1 (single isomer, unassigned) [Compound 96]",–
–,–,+++ (+++ is >60%),< 1,CCC(O)(CC)[C@H]1CC2(C[C@H](N3C(=O)c4cccc(c4)S(=O)(=O)Nc4nc(cc(-c5c(C)cccc5C)n4)OC[C@H]3CC(C)(C)C)C2)C1 (some centres unmarked) [Compound 409],–
–,–,–,–,CC(C)(C)C[C@@H]1COc2cc([C@H]3CCCCC3(C)C)nc(n2)NS(=O)(=O)c2cccc(c2)C(=O)N1C1CC2(CC2)C1 [Compound 397],Ent. B Max Activity (%): ++ (++ is 30-60%); EC50 (read-out: Ent. B EC50): < 1 µM
–,–,+++ (+++ is >60%),< 1,Cc1cccc(C)c1-c1cc2nc(n1)NS(=O)(=O)c1cccc(c1)C(=O)N([C@H]1C[C@@H](N3CCOC3=O)C1)[C@H](CC(C)(C)C)CO2 (stereo in doubt) [Compound 251],–
–,–,+++ (+++ is >60%),< 1,"Cc1cccc(C)c1-c1cc2nc(n1)NS(=O)(=O)c1cccc(c1)C(=O)N(C1CC(N(C)C)C1)[C@H](CC1(C(F)(F)F)CC1)CO2 (single isomer, unassigned) [Compound 61]",–
–,–,–,–,"Cc1cccc(C)c1-c1cc2nc(n1)NS(=O)(=O)c1cccc(c1)C(=O)N([C@H]1C[C@]3(C[C@H](NC(=O)OC(C)C)C3)C1)[C@H](CC1(C(F)(F)F)CC1)CO2 (stereo partly drawn) [Compound 79, Isopropyl ((2R,4r,6R)-6-((R)-1^6-(2,6-dimethylphenyl)-3,3-dioxido-5-oxo-7-((1-(trifluoromethyl)cyclopropyl)methyl)-9-oxa-3-thia-2,6-diaza-1(2,4)-pyrimidina-4(1,3)-benzenacyclononaphane-6-yl)spiro[3.3]heptan-2-yl)carbamate]",Ent. B Max Activity (%): +++ (+++ is >60%); EC50 (read-out: Ent. B EC50): < 1 µM
+++ (+++ is >60%),< 1,–,–,COCCN[C@H]1C[C@@]2(C1)C[C@H](N1C(=O)c3cccc(c3)S(=O)(=O)Nc3nc(cc(-c4c(C)cccc4C)n3)OC[C@H]1CC1(C(F)(F)F)CC1)C2 (some centres unmarked) [Compound 269],–
–,–,+++ (+++ is >60%),< 1,"Cc1cccc(C)c1-c1cc2nc(n1)NS(=O)(=O)c1cccc(c1)C(=O)N(C1CC(CO)(C(C)(C)O)C1)[C@H](CC(C)(C)C)CO2 (single isomer, unassigned) [Compound 160]",–
–,–,+++ (+++ is >60%),< 1,CNC(=O)C1CC2(C1)CC(N1C(=O)c3cccc(c3)S(=O)(=O)Nc3nc(cc(-c4c(C)cccc4C)n3)OC[C@H]1CC(C)(C)C)C2 (some centres unmarked) [Compound 235],–
++ (++ is 30-60%),< 1,–,–,"Cc1cccc(C)c1-c1cc2nc(n1)NS(=O)(=O)c1cccc(c1)C(=O)N(C1CC(N(C)[C@H](C)C(F)(F)F)C1)[C@H](CC(C)C)CO2 (stereo partly drawn) [Compound 68, (11R)-6-(2,6-Dimethylphenyl)-11-isobutyl-12-[3-[methyl-[(1R)-2,2,2-trifluoro-1-methyl-ethyl]amino]cyclobutyl]-2,2-dioxo-9-oxa-2λ^6-thia-3,5,12,19-tetrazatricyclo[12.3.1.14,8]nonadeca-1(18),4(19),5,7,14,16-hexaen-13-one]",–

Compound,Ent. B Max Activity (%) (Table 9),"EC50 (Table 9, read-out: Ent. B EC50) [µM]",Ent. B Max Activity (%) (Table 10),EC50 [1] [µM],also measured
"Cc1cccc(C)c1-c1cc2nc(n1)NS(=O)(=O)c1cccc(c1)C(=O)N([C@H]1C[C@@H](CNC(=O)OC(C)C)C1)[C@H](CC(C)C)CO2 (single isomer, unassigned) [Compound 108]",+++ (+++ is >60%),< 1,–,–,–
